Experimental data published in PubChem BioAssay AID248 (DTP/NCI, 2004).
“And” between values parts separate entries of the source, which are not always exact repeats. Identical values can stand only once. Toxic doses and inconclusive results are not listed.

System: L1210 leukemia ip in BDF1 mice, survival T/C
Assay: NCI In Vivo Anticancer Drug Screen. Data for tumor model L1210 Leukemia (intraperitoneal) in B6D2F1 (BDF1) mice
Conditions: endpoint: mean survival time, higher = longer survival
How it was run: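 Tumor cells were implanted, animals were treated, and survival was followed. The result divides the treated measurement by the vehicle-control measurement.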

NC(=S)N/N=C/c1ccccn1
T/C (dose: 0.48 mg/kg/injection, schedule: Q01DX009 (ip), vehicle: saline with Tween-80): 97 % of control and 115 % of control
T/C (dose: 0.9 mg/kg/injection, schedule: Q04DX002 (ip), vehicle: saline with Tween-80): 100 % of control and 107 % of control
T/C (dose: 0.95 mg/kg/injection, schedule: Q01DX009 (ip), vehicle: saline with Tween-80): 106 % of control and 115 % of control
T/C (dose: 1.0 mg/kg/injection, schedule: Q03HX032 (ip), vehicle: other): 117 % of control
T/C (dose: 1.3 mg/kg/injection, schedule: Q01DX Z (ip), vehicle: carboxymethylcellulose (CMC)): 118 % of control
T/C (dose: 1.8 mg/kg/injection, schedule: Q03HX024 (ip), vehicle: carboxymethylcellulose (CMC)): 92 % of control
T/C (dose: 1.8 mg/kg/injection, schedule: Q03HX024 (ip), vehicle: other): 111 % of control
T/C (dose: 1.8 mg/kg/injection, schedule: Q04DX002 (ip), vehicle: saline with Tween-80): 106 % of control and 110 % of control
T/C (dose: 1.9 mg/kg/injection, schedule: Q01DX009 (ip), vehicle: saline with Tween-80): 113 % of control and 121 % of control
T/C (dose: 2.6 mg/kg/injection, schedule: Q03HX032 (ip), vehicle: other): 213 % of control
T/C (dose: 3.0 mg/kg/injection, schedule: Q01DX015 (ip), vehicle: saline): 105 % of control
T/C (dose: 3.0 mg/kg/injection, schedule: Q03HX032 (ip), vehicle: other): 168 % of control
T/C (dose: 3.5 mg/kg/injection, schedule: Q03HX008 (ip), vehicle: other): 164 % of control
T/C (dose: 3.5 mg/kg/injection, schedule: Q03HX016 (ip), vehicle: other): 192 % of control
T/C (dose: 3.5 mg/kg/injection, schedule: Q03HX024 (ip), vehicle: other): 368 % of control
T/C (dose: 3.5 mg/kg/injection, schedule: Q04DX002 (ip), vehicle: saline with Tween-80): 104 % of control and 91 % of control
T/C (dose: 3.8 mg/kg/injection, schedule: Q01DX009 (ip), vehicle: saline with Tween-80): 121 % of control
T/C (dose: 4.0 mg/kg/injection, schedule: Q03HX024 (ip), vehicle: carboxymethylcellulose (CMC)): 197 % of control
T/C (dose: 4.0 mg/kg/injection, schedule: Q03HX024 (ip), vehicle: other): 337 % of control
T/C (dose: 4.0 mg/kg/injection, schedule: Q03HX024 (ip), vehicle: saline with Tween-80): 345 % of control
T/C (dose: 4.4 mg/kg/injection, schedule: Q01DX009 (ip), vehicle: saline): 114 % of control
T/C (dose: 4.4 mg/kg/injection, schedule: Q02DX010 (ip), vehicle: carboxymethylcellulose (CMC)): 114 % of control
T/C (dose: 5.0 mg/kg/injection, schedule: Q01DX015 (ip), vehicle: saline): 103 % of control
T/C (dose: 5.0 mg/kg/injection, schedule: Q03HX008 (ip), vehicle: other): 175 % of control
T/C (dose: 5.0 mg/kg/injection, schedule: Q03HX016 (ip), vehicle: other): 261 % of control
T/C (dose: 5.0 mg/kg/injection, schedule: Q03HX024 (ip), vehicle: other): 526 % of control
T/C (dose: 5.0 mg/kg/injection, schedule: Q03HX032 (ip), vehicle: other): 420 % of control
T/C (dose: 5.0 mg/kg/injection, schedule: Q04DX003 (ip), vehicle: other): 105 % of control
T/C (dose: 5.0 mg/kg/injection, schedule: Q04DX003 (ip), vehicle: saline with Tween-80): 116 % of control
T/C (dose: 5.0 mg/kg/injection, schedule: Q08DX002 (ip), vehicle: other): 102 % of control
T/C (dose: 6.0 mg/kg/injection, schedule: Q03HX024 (ip), vehicle: saline with Tween-80): 376 % of control
T/C (dose: 6.6 mg/kg/injection, schedule: Q02DX010 (ip), vehicle: carboxymethylcellulose (CMC)): 121 % of control
T/C (dose: 6.7 mg/kg/injection, schedule: Q01DX015 (ip), vehicle: other): 169 % of control
T/C (dose: 6.7 mg/kg/injection, schedule: Q02DX010 (ip), vehicle: carboxymethylcellulose (CMC)): 114 % of control
T/C (dose: 7.0 mg/kg/injection, schedule: Q01DX015 (ip), vehicle: saline): 152 % of control
T/C (dose: 7.0 mg/kg/injection, schedule: Q04DX002 (ip), vehicle: saline with Tween-80): 107 % of control and 116 % of control
T/C (dose: 7.5 mg/kg/injection, schedule: Q03HX032 (ip), vehicle: other): 150 % of control
T/C (dose: 8.0 mg/kg/injection, schedule: Q04DX003 (ip), vehicle: other): 101 % of control
T/C (dose: 8.0 mg/kg/injection, schedule: Q08DX002 (ip), vehicle: other): 104 % of control
T/C (dose: 10.0 mg/kg/injection, schedule: Q01DX009 (ip), vehicle: other): 155 % of control
T/C (dose: 10.0 mg/kg/injection, schedule: Q01DX009 (ip), vehicle: saline): 114 % of control
T/C (dose: 10.0 mg/kg/injection, schedule: Q01DX015 (ip), vehicle: other): 164 % of control
T/C (dose: 10.0 mg/kg/injection, schedule: Q02DX010 (ip), vehicle: carboxymethylcellulose (CMC)): 120 % of control
T/C (dose: 10.0 mg/kg/injection, schedule: Q04DX003 (ip), vehicle: saline with Tween-80): 114 % of control
T/C (dose: 10.7 mg/kg/injection, schedule: Q01DX Z (ip), vehicle: carboxymethylcellulose (CMC)): 116 % of control
T/C (dose: 11.0 mg/kg/injection, schedule: Q01DX015 (ip), vehicle: saline): 116 % of control
T/C (dose: 12.0 mg/kg/injection, schedule: Q04DX003 (ip), vehicle: other): 107 % of control
T/C (dose: 12.0 mg/kg/injection, schedule: Q08DX002 (ip), vehicle: other): 100 % of control
T/C (dose: 14.0 mg/kg/injection, schedule: Q04DX002 (ip), vehicle: saline with Tween-80): 110 % of control and 112 % of control
T/C (dose: 14.5 mg/kg/injection, schedule: Q01DX001 (ip), vehicle: other): 105 % of control
T/C (dose: 15.0 mg/kg/injection, schedule: Q01DX009 (ip), vehicle: other): 159 % of control
T/C (dose: 15.0 mg/kg/injection, schedule: Q02DX010 (ip), vehicle: carboxymethylcellulose (CMC)): 120 % of control and 121 % of control (2×)
T/C (dose: 17.0 mg/kg/injection, schedule: Q01DX015 (ip), vehicle: saline): 104 % of control
T/C (dose: 18.0 mg/kg/injection, schedule: Q04DX003 (ip), vehicle: other): 112 % of control
T/C (dose: 18.0 mg/kg/injection, schedule: Q08DX002 (ip), vehicle: other): 97 % of control
T/C (dose: 20.0 mg/kg/injection, schedule: Q04DX003 (ip), vehicle: saline with Tween-80): 109 % of control
T/C (dose: 22.0 mg/kg/injection, schedule: Q01DX001 (ip), vehicle: other): 101 % of control and 114 % of control
T/C (dose: 22.5 mg/kg/injection, schedule: Q02DX010 (ip), vehicle: carboxymethylcellulose (CMC)): 109 % of control and 90 % of control
T/C (dose: 25.0 mg/kg/injection, schedule: Q01DX015 (ip), vehicle: saline): 90 % of control
T/C (dose: 27.0 mg/kg/injection, schedule: Q04DX003 (ip), vehicle: other): 104 % of control
T/C (dose: 27.0 mg/kg/injection, schedule: Q08DX002 (ip), vehicle: other): 95 % of control
T/C (dose: 28.0 mg/kg/injection, schedule: Q04DX002 (ip), vehicle: saline with Tween-80): 104 % of control and 107 % of control
T/C (dose: 30.0 mg/kg/injection, schedule: Q01DX009 (ip), vehicle: saline with Tween-80): 90 % of control
T/C (dose: 33.0 mg/kg/injection, schedule: Q01DX001 (ip), vehicle: other): 105 % of control and 112 % of control
T/C (dose: 34.0 mg/kg/injection, schedule: Q02DX010 (ip), vehicle: carboxymethylcellulose (CMC)): 73 % of control and 89 % of control
T/C (dose: 50.0 mg/kg/injection, schedule: Q01DX001 (ip), vehicle: other): 104 % of control

O=S(=O)(Cl)c1cc(Cl)ccc1Cl
T/C (dose: 25.0 mg/kg/injection, schedule: Q01DX009 (ip), vehicle: Klucel (hydroxypropylcellulose) (HPC)): 95 % of control
T/C (dose: 50.0 mg/kg/injection, schedule: Q01DX009 (ip), vehicle: Klucel (hydroxypropylcellulose) (HPC)): 98 % of control
T/C (dose: 100.0 mg/kg/injection, schedule: Q01DX009 (ip), vehicle: Klucel (hydroxypropylcellulose) (HPC)): 97 % of control

CC1CN1P(=O)(OCCCl)N1CC1C (stereo unspecified)
T/C (dose: 20.0 mg/kg/injection, schedule: Q01DX Z (ip), vehicle: saline): 97 % of control
T/C (dose: 40.0 mg/kg/injection, schedule: Q01DX Z (ip), vehicle: saline): 100 % of control
T/C (dose: 80.0 mg/kg/injection, schedule: Q01DX Z (ip), vehicle: saline): 108 % of control
T/C (dose: 160.0 mg/kg/injection, schedule: Q01DX Z (ip), vehicle: saline): 117 % of control

CCOC(=O)C1(C(C)C)OC2(O)CCCCCN2C1=O (stereo unspecified)
T/C (dose: 50.0 mg/kg/injection, schedule: Q01DX009 (ip), vehicle: saline): 95 % of control
T/C (dose: 100.0 mg/kg/injection, schedule: Q01DX009 (ip), vehicle: saline): 100 % of control
T/C (dose: 100.0 mg/kg/injection, schedule: Q04DX002 (ip), vehicle: saline): 89 % of control
T/C (dose: 200.0 mg/kg/injection, schedule: Q01DX009 (ip), vehicle: saline): 95 % of control
T/C (dose: 200.0 mg/kg/injection, schedule: Q04DX002 (ip), vehicle: saline): 92 % of control

O=S(=O)(O)SCCCNCCCCCCCCNCCCSS(=O)(=O)O
T/C (dose: 100.0 mg/kg/injection, schedule: Q04DX003 (ip), vehicle: saline with Tween-80): 101 % of control
T/C (dose: 200.0 mg/kg/injection, schedule: Q04DX003 (ip), vehicle: saline with Tween-80): 92 % of control
T/C (dose: 400.0 mg/kg/injection, schedule: Q04DX003 (ip), vehicle: saline with Tween-80): 88 % of control
